According to patent US5475016A, “Sulphonylbenzyl-substituted imidazolypropenoic acid derivatives” (Bayer Aktiengesellschaft, priority 1992, dated 1995):

test system: smooth muscle cells; experiment: Inhibition of the proliferation of smooth muscle cells (3H-thymidine incorporation); assay type: cell-based, rats or pigs; settings: 10^-6 M
Experimental: Investigation of Inhibition of the Proliferation of Smooth Muscle Cells by the Compounds According to the Invention
To determine the antiproliferative action of the compounds, smooth muscle cells are used which have been obtained from the aortas of rats or pigs by the media explant technique [R. Ross, J. Cell. Biol. 50, 172, 1971]. The cells are inoculated into suitable culture dishes, as a rule 24-hole plates, and cultured at 37° C. in 5% CO2 for 2-3 days in Medium 199 containing 7.5% FCS and 7.5% NCS, 2 mM L-glutamine and 15 mM HEPES, pH 7.4. After this, the cells are synchronised by withdrawal of serum for 2-3 days and then stimulated into growth with AII, serum or other factors. At the same time, test compounds are added. After 16-20 hours, 1 μCi of ^3 H-thymidine is added and the incorporation of this substance into the TCA-precipitable DNA of the cells is determined after a further 4 hours.

Going from `CCCCc1nc(Cl)c(C=C(Cc2cccs2)C(=O)OC)n1Cc1ccc(S(=O)(=O)N2CCCCC2)cc1` [Example 27] to `CCCCc1nc(Cl)c(C=CC(=O)O)n1Cc1ccc(S(=O)(=O)N2CCCC2)cc1` [Example 6], the inhibition at 1 µM rises from 30% to 70%.

test system: isolated aorta rings of rabbits, contraction induced by angiotensin II (AII); experiment: Inhibition of the vascular contraction in isolated aorta rings of rabbits in vitro, contraction induced by angiotensin II; assay type: cell-based, rabbit; settings: Oryctolagus cuniculus, effect at the 3rd = submaximal agonist concentration, read-out: IC50 against contractions induced by: AII
Experimental: Investigation of the Inhibition of the Contraction Induced with Agonists
Rabbits of both sexes are anaesthetised by a blow to the neck and bled out, or alternatively anaesthetised with Nembutal (about 60-80 mg/kg i.v.) and sacrificed by opening the thorax. The thorax aorta is taken out, freed from adhering connective tissue, divided into 1.5 mm-wide ring segments and these are individually transferred under an initial loading of about 3.5 g to 10-ml organ baths containing 95% O2 /5% CO2 -aerated Krebs-Henseleit nutrient solution, thermostated at 37° C., of the following composition: 119 mmol/l NaCl; 2.5 mmol/l CaCl2 ×2H2 O; 1.2 mmol/l KH2 PO4; 10 mmol/l glucose; 4.8 mmol/l KCl; 1.4 mmol/l MgSO4 ×7 H2 O and 25 mmol/l NaHCO3.
The contractions are detected isometrically by Statham UC2 cells by means of a bridge amplifier (ifd Mulheim or DSM Aalen) and digitised and evaluated by means of an A/D converter (System 570, Keithley, Munich). The implementation of agonist dose-response curves (DRC) is carried out hourly. With each DRC, 3 or 4 individual concentrations are applied to the baths at 4-min intervals. After the end of the DRC and subsequent washing-out cycles (16 times, in each case about 5 sec/min with the abovementioned nutrient solution), a 28-minute rest or incubation phase follows, in the course of which the contractions as a rule reach the starting value again.
The height of, in the normal case, the 3rd DRC is used as a reference quantity for the assessment of the test substance to be investigated in further runs, which test substance in the following DRCs is applied at the start of the incubation time to the baths, in each case in an increasing dose. Each aorta ring is in this case stimulated for the whole day, always with the same agonist.
Agonists and their Standard Concentrations (Administration Volume Per Individual Dose=100 μl):
For the calculation of the IC50 (concentration at which the substance to be investigated causes a 50% inhibition), the effect in each case at the 3rd=submaximal agonist concentration is used as a basis.

`CCCCc1ncc(C=C(Cc2ccc(F)cc2)C(=O)OC)n1Cc1ccc(S(=O)(=O)N2CCC[C@H]2C(=O)O)cc1Cl` [Example 57] and `CCCCc1ncc(C=C(Cc2cccs2)C(=O)OC)n1Cc1ccc(S(=O)(=O)N2CCC[C@H]2C(=O)O)cc1Cl` [Example 53] are the same in IC50: 6 nM for the first, 6 nM for the second.

`CCCCc1ncc(C=C(CCC)C(=O)O)n1Cc1ccc(S(=O)(=O)N2CCC[C@H]2C(=O)O)cc1Cl` [Example 39] and `CCCCc1ncc(C=C(CC(C)C)C(=O)O)n1Cc1ccc(S(=O)(=O)N2CCC[C@H]2C(=O)O)cc1Cl` [Example 43] are within 1.5-fold of each other in IC50: 4 nM for the first, 3 nM for the second.

`CCCCc1ncc(C=C(Cc2cccs2)C(=O)O)n1Cc1ccc(S(=O)(=O)N2CCC[C@H]2C(=O)O)cc1Cl` [Example 55] and `CCCCc1ncc(C=C(CC2CCCC2)C(=O)O)n1Cc1ccc(S(=O)(=O)N2CCC[C@H]2C(=O)O)cc1Cl` [Example 47] are within 1.5-fold of each other in IC50: 3 nM for the first, 4 nM for the second.

First: CCCCc1nc(Cl)c(C=C(CC2CCCC2)C(=O)O)n1Cc1ccc(S(=O)(=O)N2CCC[C@H]2C(=O)O)cc1 [Example 19]
Second: CCCCc1nc(Cl)c(C=C(CC2CCCCC2)C(=O)O)n1Cc1ccc(S(=O)(=O)N2CCC[C@H]2C(=O)O)cc1Cl [Example 24]
The IC50 of the first is 40-fold higher: 40 nM for the first, 1 nM for the second. The second is the more potent here.

`CCCCc1nc(Cl)c(C=C(CC2CCCC2)C(=O)OC)n1Cc1ccc(S(=O)(=O)N2CCCCC2C(=O)O)cc1Cl` (racemic) [Example 2, rac-4-{[2-Butyl-4-chloro-5-(3-cyclopentyl-2-methoxycarbonylprop-1-enyl)imidazolyl]methyl}-3-chlorobenzenesulphonyl-N-(2-carboxy)piperidinide] showed an IC50 of 11 nM.

molecular target: T1, Angiotensin II receptor (Bos taurus, UniProt P25104); experiment: Interaction with the angiotensin II receptor on membrane fractions of the adrenal gland cortex (cattle), 3H-angiotensin II binding; settings: bovine adrenal gland cortex membranes, 3H-angiotensin II 3-5 nM, 60 min at room temperature
T1 construct: from tissue; host or cells: bovine adrenal gland cortex, partially purified membrane fractions
T1 sequence (P25104 1-359): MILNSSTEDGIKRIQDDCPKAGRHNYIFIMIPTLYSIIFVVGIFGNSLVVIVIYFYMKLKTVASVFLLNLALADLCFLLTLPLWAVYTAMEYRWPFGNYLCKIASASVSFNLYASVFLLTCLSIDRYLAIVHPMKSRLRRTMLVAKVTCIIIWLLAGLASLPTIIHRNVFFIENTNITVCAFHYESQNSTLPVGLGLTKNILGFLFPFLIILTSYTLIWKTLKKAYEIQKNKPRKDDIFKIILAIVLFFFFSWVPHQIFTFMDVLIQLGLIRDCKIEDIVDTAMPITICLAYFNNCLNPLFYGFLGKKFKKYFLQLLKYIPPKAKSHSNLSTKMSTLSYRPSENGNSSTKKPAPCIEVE
Description: Interaction of the Compounds According to the Invention with the Angiotensin II Receptor on Membrane Fractions of the Adrenal Gland Cortex (Cattle)
Adrenal gland cortices of cattle (AGC), which have been freshly removed and carefully freed from gland medulla, are comminuted in sucrose solution (0.32M) with the aid of an Ultra-Turrax (Janke & Kunkel, Staufen i.B.) to give a coarse membrane homogenate and are partially purified in two centrifugation steps to give membrane fractions. The receptor binding investigations are carried out on partially purified membrane fractions of bovine AGC using radioactive angiotensin II in an assay volume of 0.25 ml, which in detail contains the partially purified membranes (50-80 μg), ^3 H-angiotensin II (3-5 nM), test buffer solution (50 mM tris, pH 7.2, 5 mM MgCl2, 0.25% BSA) and the substances to be investigated. After an incubation time of 60 min at room temperature, the unbound radioactivity of the samples is separated by means of moistened glass fibre filters (Whatman GF/C) and the bound radioactivity is measured […] in a scintillation cocktail after washing the protein with ice-cold buffer solution (50 mM tris/HCl, pH 7.4, 5% PEG 6000). The analysis of the raw data was carried out using computer programs to give Ki or IC50 values (Ki : IC50 values corrected for the radioactivity used; IC50 values: concentration at which the substance to be investigated causes a 50% inhibition of the specific binding of the radioligand).

Going from `CCCCc1nc(Cl)c(C=C(CC2CCCCC2)C(=O)O)n1Cc1ccc(S(=O)(=O)N2CCCCC2)cc1` [Example 10] to `CCCCc1nc(Cl)c(C=C(CC2CCCC2)C(=O)O)n1Cc1ccc(S(=O)(=O)N2CCCCC2)cc1` [Example 9], the Ki rises from 40 nM to 100 nM (2.5-fold).

Going from `CCCCc1nc(Cl)c(C=C(Cc2cccs2)C(=O)OC)n1Cc1ccc(S(=O)(=O)N2CCCCC2C(=O)OC(C)(C)C)cc1` (stereo not drawn) [Example 30] to `CCCCc1nc(Cl)c(C=C(CC2CCCC2)C(=O)O)n1Cc1ccc(S(=O)(=O)N2CCCCC2C(=O)O)cc1Cl` (stereo not drawn) [Example 20], the Ki falls from 120 nM to 40 nM (3-fold).

test system: Angiotensin II-infused rat; experiment: Blood pressure measurements on the angiotensin II-infused rat; assay type: in vivo, male Wistar rats; settings: 0.1 mg/kg p.o.; angiotensin II infusion 0.3 μg/kg/min; average values
Experimental: Blood Pressure Measurements on the Angiotensin II-Infused Rat
Male Wistar rats (Moellegaard, Copenhagen, Denmark) having a body weight of 300-350 g are anaesthetised with thiopental (100 mg/kg i.p.). After tracheotomy, a catheter is inserted in the femoral artery for blood pressure measurement and a catheter for angiotensin II infusion and a catheter for substance administration are inserted in the femoral veins. After administration of the ganglionic blocker pentolinium (5 mg/kg i.v.), the angiotensin II infusion (0.3 μg/kg/min) is started. As soon as the blood pressure values have reached a stable plateau, the test substances are administered either intravenously or orally as a suspension or solution in 0.5% Tylose.

Going from `CCCCc1nc(Cl)c(C=C(CC2CCCCC2)C(=O)O)n1Cc1ccc(S(=O)(=O)N2CCC[C@H]2C(=O)O)cc1` [Example 23] to `CCCCc1ncc(C=C(CC(C)C)C(=O)O)n1Cc1ccc(S(=O)(=O)N2CCC[C@H]2C(=O)O)cc1Cl` [Example 43], the “Blood pressure measurement (blood pressure change)” value rises from -17 mm Hg to -10 mm Hg.

For `CCCCc1ncc(C=C(CC(C)C)C(=O)OCC)n1Cc1ccc(S(=O)(=O)N2CCC[C@H]2C(=O)O)cc1Cl` [Example 41], the “Blood pressure measurement (blood pressure change)” value was -11 mm Hg.
